The source made the active and inactive calls. The rule behind the calls is not given here.
What was measured:
[1] = Volume of distribution in male Sprague-Dawley rat at 1 mg/kg, iv measured up to 1440 mins by LC-MS analysis; type: ADME, organism-based; conditions: in vivo
Mus musculus [2] = assay: Protection against TNFalpha-induced SIRS C57BL/6J mouse assessed as histological change in lung at 1 to 10 mg/kg, ip pretreated with compound for 1 hr followed by TNF-alpha administration measured up to 72 hrs by H and E staining based analysis; type: functional, organism-based; conditions: dose 1-10 mg/kg, time 73.0 hrs
L929 [3] = assay: Inhibition of ROS production in TNF-alpha/z-VAD-fmk-induced mouse L929 cells incubated for 4 hrs by DCFH-DA staining based analysis; type: functional, cell-based; conditions: dose 10-250 nM
[4] = Half life in male Sprague-Dawley rat at 1 mg/kg, iv measured up to 1440 mins by LC-MS analysis; type: ADME, organism-based; conditions: in vivo
[5] = molecular target: Receptor-interacting serine/threonine-protein kinase 3 (Homo sapiens) (UniProt Q9Y572); assay: Inhibition of RIPK3 (unknown origin)
[6] = Cytotoxicity against mouse L929 cells assessed as cell survival by CCK8 assay; type: toxicity, cell-based
L929 [7] = assay: Inhibition of ROS production in TNF-alpha/z-VAD-fmk-induced mouse L929 cells at 250 nM incubated for 4 hrs by DCFH-DA staining based analysis; type: functional, cell-based
Mus musculus [8] = assay: Protection against TNFalpha-induced SIRS C57BL/6J mouse model assessed as reduction in body temperature loss at 5 mg/kg, ip pretreated with compound for 1 hr followed by TNF-alpha administration measured up to 72 hrs by electric thermometer analysis; type: functional, organism-based; conditions: time 73.0 hrs
[9] = AUC (0 to infinity) in male Sprague-Dawley rat at 1 mg/kg, iv measured up to 1440 mins by LC-MS analysis; type: ADME, organism-based; conditions: in vivo
Mus musculus [10] = assay: Protection against TNFalpha-induced SIRS C57BL/6J mouse assessed as histological change in liver at 1 to 10 mg/kg, ip pretreated with compound for 1 hr followed by TNF-alpha administration measured up to 72 hrs by H and E staining based analysis; type: functional, organism-based; conditions: dose 1-10 mg/kg, time 73.0 hrs
L929 [11] = assay: Anti-necroptosis activity against TZ-induced mouse L929 cells assessed as increase in cell viability at 1.9 to 250 nM preincubated with compound for 1 hr followed by TNF-alpha/z-VAD-fmk stimulation for 24 hrs by CCK8 assay; type: functional, cell-based; conditions: dose 1.9-250 nM, time 25.0 hrs
[12] = AUC (0 to t) in male Sprague-Dawley rat at 1 mg/kg, iv measured up to 1440 mins by LC-MS analysis; type: ADME, organism-based; conditions: in vivo
L929 [13] = assay: Inhibition of […] in TNF-alpha/z-VAD-fmk-induced mouse L929 cells assessed as increase in fluorescence intensity in lysosomes at 10 to 250 nM incubated for 4 hrs by Lyso-Tracker dye based analysis; type: functional, cell-based; conditions: dose 10-250 nM

Receptor-interacting serine/threonine-protein kinase 3 (Homo sapiens), sequence (Q9Y572 whole entry, looked up): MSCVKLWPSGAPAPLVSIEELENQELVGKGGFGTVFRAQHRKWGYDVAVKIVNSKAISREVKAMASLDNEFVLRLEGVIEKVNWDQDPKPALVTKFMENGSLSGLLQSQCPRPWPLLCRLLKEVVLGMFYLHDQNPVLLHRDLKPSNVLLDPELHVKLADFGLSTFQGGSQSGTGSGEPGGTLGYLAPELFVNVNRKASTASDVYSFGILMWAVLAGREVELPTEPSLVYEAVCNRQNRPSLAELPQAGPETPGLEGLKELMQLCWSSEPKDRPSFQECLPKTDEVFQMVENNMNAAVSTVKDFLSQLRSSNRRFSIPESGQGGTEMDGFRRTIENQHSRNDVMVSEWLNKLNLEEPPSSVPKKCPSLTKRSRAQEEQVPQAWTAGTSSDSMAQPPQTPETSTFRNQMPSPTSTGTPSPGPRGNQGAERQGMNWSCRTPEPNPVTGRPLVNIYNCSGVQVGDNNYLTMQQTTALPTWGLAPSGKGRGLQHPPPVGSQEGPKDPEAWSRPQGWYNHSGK

Compound: O=S(=O)(Cc1ccccc1)N1OCC[C@H]1c1ccccc1
- Vd [1]: 27.7 L/kg
- Activity (Mus musculus [2]): Active
- inhibition (L929 [3]): Dose-dependent-effect
- half-life [4]: 2.21 h
- inhibition [5]: inactive
- CC50 [6]: > 50 µM
- inhibition (L929 [7]): inactive
- Activity (Mus musculus [8]): Active
- AUC(0-inf) [9]: 122 ng·h/mL
- Activity (Mus musculus [10]): Active
- Activity (L929 [11]): Active
- AUC(0-t) at 24 h [12]: 116 ng·h/mL
- inhibition (L929 [13]): Active

— ChEMBL document CHEMBL6182874, “Discovery of phenylisoxazolidine analogs targeting receptor interacting protein kinase 1 with anti-inflammatory activity” (Eur J Med Chem, 2025)
